What all share (type): biochemical
The target of assay [1] is T1, PDX3 (At5g49970) (Arabidopsis thaliana, UniProt Q9LTX3).
T1 construct: gene PPOX1; cDNA without predicted transit peptide (residues 2 to 73 removed), N-terminal His6 tag, pET-28a, E. coli BL21(DE3); NNRE and POX domains both present
T1 sequence (Q9LTX3 74-530): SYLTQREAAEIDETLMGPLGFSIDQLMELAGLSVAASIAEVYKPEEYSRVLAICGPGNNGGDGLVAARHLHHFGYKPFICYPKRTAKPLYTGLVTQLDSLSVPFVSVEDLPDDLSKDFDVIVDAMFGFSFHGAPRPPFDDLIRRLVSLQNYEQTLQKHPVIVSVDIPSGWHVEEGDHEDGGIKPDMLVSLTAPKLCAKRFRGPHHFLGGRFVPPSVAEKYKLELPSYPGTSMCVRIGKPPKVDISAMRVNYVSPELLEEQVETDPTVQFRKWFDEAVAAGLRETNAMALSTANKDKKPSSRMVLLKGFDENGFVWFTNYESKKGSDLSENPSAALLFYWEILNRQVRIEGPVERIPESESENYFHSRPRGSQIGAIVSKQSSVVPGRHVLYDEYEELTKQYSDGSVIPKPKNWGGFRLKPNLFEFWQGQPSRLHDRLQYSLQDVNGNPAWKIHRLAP
The assay can be described thus: coupled spectrophotometric NADHX repair assay, […] and […] nm. Conditions: epimerization by NNRE domain; coupled to NNRD; 1 mM ATP, 2 mM MgCl2, 5 mM KCl, Tris-HCl pH 8, 25 °C; racemic NADHX.

Assay [2] deals with T2, NNRD (dehydratase) (Arabidopsis thaliana, UniProt Q94AF2).
T2 construct: gene At5g19150; no transit peptide (residues 2 to 45 removed), C-terminal His6 tag, pET-24b, E. coli BL21(DE3); locus printed as At5g12150, probably a misprint of At5g19150
T2 sequence (Q94AF2 46-365): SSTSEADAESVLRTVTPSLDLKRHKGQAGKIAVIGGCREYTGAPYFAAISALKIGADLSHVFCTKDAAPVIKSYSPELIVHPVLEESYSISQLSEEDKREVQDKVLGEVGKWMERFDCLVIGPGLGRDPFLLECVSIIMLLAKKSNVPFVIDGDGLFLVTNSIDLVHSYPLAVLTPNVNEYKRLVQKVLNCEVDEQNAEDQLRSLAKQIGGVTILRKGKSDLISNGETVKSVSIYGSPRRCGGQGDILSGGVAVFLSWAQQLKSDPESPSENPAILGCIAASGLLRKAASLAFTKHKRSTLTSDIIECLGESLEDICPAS
The assay can be described thus: spectrophotometric dehydratase assay, […] and […] nm. The following applies: 1 mM ATP, 2 mM MgCl2, 5 mM KCl, Tris-HCl pH 8, 25 °C; racemic NADHX.

The target of assay [3] is T3, Arabidopsis NR2 (NIA2, At1g37130) (Arabidopsis thaliana, UniProt P11035).
T3 construct: commercial recombinant enzyme expressed and purified from Pichia pastoris
T3 sequence (P11035 1-917): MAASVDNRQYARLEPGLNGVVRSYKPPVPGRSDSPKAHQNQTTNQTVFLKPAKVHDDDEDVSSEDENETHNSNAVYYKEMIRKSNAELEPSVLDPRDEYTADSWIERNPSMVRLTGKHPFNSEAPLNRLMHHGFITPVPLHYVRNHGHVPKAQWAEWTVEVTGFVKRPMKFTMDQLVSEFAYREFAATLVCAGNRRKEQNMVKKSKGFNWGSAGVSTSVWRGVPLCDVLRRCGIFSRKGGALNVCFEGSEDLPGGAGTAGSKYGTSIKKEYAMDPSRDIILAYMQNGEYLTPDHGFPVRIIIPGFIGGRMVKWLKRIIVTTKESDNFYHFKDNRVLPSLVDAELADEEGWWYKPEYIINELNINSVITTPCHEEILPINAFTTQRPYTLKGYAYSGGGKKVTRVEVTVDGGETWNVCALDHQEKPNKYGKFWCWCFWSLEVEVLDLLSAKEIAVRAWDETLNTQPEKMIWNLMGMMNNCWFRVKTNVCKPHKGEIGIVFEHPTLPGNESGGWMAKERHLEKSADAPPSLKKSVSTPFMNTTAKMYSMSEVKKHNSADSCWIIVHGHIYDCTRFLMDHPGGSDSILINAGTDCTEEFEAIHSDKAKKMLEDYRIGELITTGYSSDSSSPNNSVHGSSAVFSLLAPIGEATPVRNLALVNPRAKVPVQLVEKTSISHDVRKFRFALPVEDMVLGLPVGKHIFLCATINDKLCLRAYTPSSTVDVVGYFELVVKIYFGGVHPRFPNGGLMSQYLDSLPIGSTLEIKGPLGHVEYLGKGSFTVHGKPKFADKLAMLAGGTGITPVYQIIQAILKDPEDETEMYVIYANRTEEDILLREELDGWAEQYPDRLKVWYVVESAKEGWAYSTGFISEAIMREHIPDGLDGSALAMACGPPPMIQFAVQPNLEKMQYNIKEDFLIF
The assay can be described thus: nitrate reductase activity with APADH, absorbance at […] nm. Conditions: electron donor replacing NADH, 0.1 mM; 10 mM potassium nitrate, 0.005 mM FAD, phosphate pH 7.5, 25 °C.

Regarding `NC(=O)C1=CN([C@@H]2O[C@H](COP(=O)(O)OP(=O)(O)OC[C@H]3O[C@@H](n4cnc5c(N)ncnc54)[C@H](O)[C@@H]3O)[C@@H](O)[C@H]2O)[C@H](O)CC1` (mixture of isomers) [(R)-NADHX], the “coupled spectrophotometric NADHX repair assay, 290 and 340 nm” value in assay [1] was “leads to epimerization of (R)-NADHX in the racemate to (S)-NADHX by the NNRE domain”. Take `NC(=O)C1=CN([C@@H]2O[C@H](COP(=O)(O)OP(=O)(O)OC[C@H]3O[C@@H](n4cnc5c(N)ncnc54)[C@H](O)[C@@H]3O)[C@@H](O)[C@H]2O)[C@@H](O)CC1` (mixture of isomers) [(S)-NADHX]: the “spectrophotometric dehydratase assay, 290 and 340 nm” value in assay [2] is “(S)-NADHX within a racemic mixture of NADHX is dehydrated to NADH by NNRD”. With `CC(=O)C1=CN([C@@H]2O[C@H](COP(=O)(O)OP(=O)(O)OC[C@H]3O[C@@H](n4cnc5c(N)ncnc54)[C@H](O)[C@@H]3O)[C@@H](O)[C@H]2O)C=CC1` [APADH], the “nitrate reductase activity with APADH, absorbance at 363 nm” value in assay [3] is “the latter was replaced with its analog, 3-acetylpyridine-adenine dinucleotide (APADH”.

The values above are taken from article PMC10517258, “PYRIDOX(AM)INE 5′-PHOSPHATE OXIDASE3 of Arabidopsis thaliana maintains carbon/nitrogen balance in distinct environmental conditions” (Plant Physiology, 2023).
